Key:
[1] = test system: ALDHhigh fractions in SUM-159PT cells; assay: ALDH activity assay (ALDEFLUOR); type: cell-based; settings: 4 µM
Method: Cells were treated with B591 for 24 h, then the cell suspension was incubated with 20 μl of CD44-APC (#559942, BD Pharmingen, Franklin Lakes, NJ, USA) and 20 μl of CD24-PE (#555428, BD Pharmingen) antibodies for 30 min in dark at 4 ℃. Phenotype was detected by BD FACSCalibur, and data was analyzed with Flowjo. ALDH activity was analyzed with ALDEFLUOR Kit (STEMCELL Technologies, Vancouver, BC, Canada) according to the manufacture’s protocol.

RD cells = assay: Apoptosis assay (Annexin V-FITC); type: cell-based, human; settings: 48 h
Method: Cells were seeded in six-well plates at a density of 2×10^5 cells per well and kept overnight at 37℃ humidified incubator with 5% CO2. The next day, cells were treated with B591 for 48 h. Cells were then collected and stained using Annexin V-FITC Apoptosis Detection Kit I (BD Pharmingen™, Franklin Lakes, NJ, USA) according to manufacturer’s instruction. In brief, cells were washed with cold PBS twice and with binding buffer once, about 1×10^5 cells were resuspended in 100 μl Annexin-V binding buffer, followed by incubation with FITC conjugated Annexin V and propidium iodide (PI) for 15 min at room temperature in the dark. The apoptosis assay was performed by using BD FACSCalibur flow cytometry.
Supplementary Fig. S8. B591 induces G0/G1 cell cycle arrest and apoptosis in tumor cells. […] The cells were harvested and analyzed for cell cycle profile. […] The cells were harvested and processed for apoptosis assay using the Annexin V-FITC Apoptosis Detection Kit. (D) Quantification of flow cytometry analysis of apoptosis. Results were presented as mean ± SD (n = 3). ^***p <0.001, difference versus DMSO-treated control group.

PI3Kα (p110α/p85α) = biological target: T1, PI3Kα (p110α/p85α) (Homo sapiens, UniProt P42336); assay: In vitro PI3K kinase assay (PI3-Kinase Activity ELISA); type: biochemical; settings: incubated 30 min at room temperature
T1 construct: purchased Promega
Method: (§1) Purified PI3K Class I Lipid Kinase, including p110α/p85α, p110β/p85α, p110γ, and p110δ/p85α (Promega, Madison, WI, USA), was respectively incubated with B591 for 30 min at room temperature. The activity of PI3K was evaluated using a PI3-Kinase Activity ELISA kit (K-1000s, Echelon, Salt Lake City, UT, USA) according to the manufacture’s instructions. The assay is a competitive ELISA in which the signal is inversely proportional to the amount of PI(3,4,5)P3 produced. After the PI3-Kinase reactions are complete, reaction products are first mixed and incubated with a PI(3,4,5)P3 detector protein, then added to the PI(3,4,5)P3-coated microplate for competitive binding. A peroxidase-linked secondary detector and colorimetric detection is used to detect PI(3,4,5)P3 detector binding to the plate. The colorimetric signal is inversely proportional to the amount of PI(3,4,5)P3 produced by PI3-Kinase. The absorbance was measured at 450 nm with a Multilabel Reader (PerkinElmer, Waltham, MA, USA). ATP competition assays were executed with varying concentrations of ATP, and five concentrations of ATP were 5 μM, 25 μM, 50 μM, 100 μM, and 200 μM respectively. The IC50 values for inhibition of PI3Kβ by B591 were determined at indicated concentrations of ATP. In addition, B591 selectivity was tested against 39 kinases at Life Technologies.

PI3Kδ (p110δ/p85α) = biological target: T2, PI3Kδ (p110δ/p85α) (Homo sapiens, UniProt O00329); assay: as above; type: biochemical; settings: incubated 30 min at room temperature
T2 construct: purchased Promega
Method: as §1

PI3Kγ (p110γ) = biological target: T3, PI3Kγ (p110γ) (Homo sapiens, UniProt P48736); assay: as above; type: biochemical; settings: incubated 30 min at room temperature
T3 construct: purchased Promega
Method: as §1

PI3Kβ (p110β/p85α) = biological target: T4, PI3Kβ (p110β/p85α) (Homo sapiens, UniProt P42338); assay: as above; type: biochemical
T4 construct: purchased Promega
Method: as §1

[2] = test system: primary tumor cells dissociated from MDA-MB-231 xenografts replanted into NOD/SCID mice; assay: Limiting dilution assay of cells from treated MDA-MB-231 xenografts; type: in vivo; settings: for number of tumor-bearing mice (number of recipient mice): cells from 16 mg/kg group, 3 months later
Method: Fig. 5 B591 abolishes tumor growth in vivo by eliminating CSCs. a MDA-MB-231 xenografts were treated with vehicle or B591 for 2 weeks, then the residual tumor tissue was harvested and dissociated into single cells for subsequent CSCs assays according with the flow chart. b–d Tumor weight and mice body weight were measured every 2 days during treatment. In the end of treatment, tumor tissues were collected and weighted (n = 8). e The CSCs markers of tumor cells were analyzed by flow cytometry. Only the live and non-mouse cell population was gated and analyzed. Data from three mice were plotted. f Mammosphere formation assay was carried out with the single cells. The relative mammosphere-formation ability is shown as percentage, and data represent mean ± SD. g The single cells from vehicle and 16 mg/kg of B591 group were replanted into NOD/SCID mice according to the indicating number, and 3 months later, tumors were counted for calculating the tumor-initiating frequency. h The CSCs markers and the downstream substrates of PI3K pathway were analyzed using the lysates from the primary xenografts by western blot analysis. ^**p < 0.01, difference versus vehicle-treated control group TEXT PRINTED IN THE PICTURE: (G) B591: 3(5) (Cell number: 200 000); 2(5) (Cell number: 20 000); 0(5) (Cell number: 2 000); 0(5) (Cell number: 200); TIF: 1/145 000
The primary tumor cells dissociated from xenografts were injected into the mammary fat pad of NOD/SCID mice in limiting dilutions.
In MDA-MB-231 xenografts experiment, 1 × 10^6 cells were incubated into the mammary fat pad of mice orthotopically. When the volume of tumor reached above 50 mm^3, the mice were randomly divided into three groups for introperitoneal (i.p.) injection with vehicle, 4 mg/kg and 16 mg/kg B591. The tumor volume and the body weight of mice were measured during the 2-weeks treatment. In the end of treatment, the mice were killed, and the tumor tissues were dissected and dissociated into single cell suspension with Dispase II (Roche, Basel, Switzerland) according with the manufacture’s protocol. Then these single cells were used for CSCs phenotype assay, ALDH activity assay, mammosphere formation assay and limiting dilution assay in vivo as described above.

T4 sequence (P42338 whole entry): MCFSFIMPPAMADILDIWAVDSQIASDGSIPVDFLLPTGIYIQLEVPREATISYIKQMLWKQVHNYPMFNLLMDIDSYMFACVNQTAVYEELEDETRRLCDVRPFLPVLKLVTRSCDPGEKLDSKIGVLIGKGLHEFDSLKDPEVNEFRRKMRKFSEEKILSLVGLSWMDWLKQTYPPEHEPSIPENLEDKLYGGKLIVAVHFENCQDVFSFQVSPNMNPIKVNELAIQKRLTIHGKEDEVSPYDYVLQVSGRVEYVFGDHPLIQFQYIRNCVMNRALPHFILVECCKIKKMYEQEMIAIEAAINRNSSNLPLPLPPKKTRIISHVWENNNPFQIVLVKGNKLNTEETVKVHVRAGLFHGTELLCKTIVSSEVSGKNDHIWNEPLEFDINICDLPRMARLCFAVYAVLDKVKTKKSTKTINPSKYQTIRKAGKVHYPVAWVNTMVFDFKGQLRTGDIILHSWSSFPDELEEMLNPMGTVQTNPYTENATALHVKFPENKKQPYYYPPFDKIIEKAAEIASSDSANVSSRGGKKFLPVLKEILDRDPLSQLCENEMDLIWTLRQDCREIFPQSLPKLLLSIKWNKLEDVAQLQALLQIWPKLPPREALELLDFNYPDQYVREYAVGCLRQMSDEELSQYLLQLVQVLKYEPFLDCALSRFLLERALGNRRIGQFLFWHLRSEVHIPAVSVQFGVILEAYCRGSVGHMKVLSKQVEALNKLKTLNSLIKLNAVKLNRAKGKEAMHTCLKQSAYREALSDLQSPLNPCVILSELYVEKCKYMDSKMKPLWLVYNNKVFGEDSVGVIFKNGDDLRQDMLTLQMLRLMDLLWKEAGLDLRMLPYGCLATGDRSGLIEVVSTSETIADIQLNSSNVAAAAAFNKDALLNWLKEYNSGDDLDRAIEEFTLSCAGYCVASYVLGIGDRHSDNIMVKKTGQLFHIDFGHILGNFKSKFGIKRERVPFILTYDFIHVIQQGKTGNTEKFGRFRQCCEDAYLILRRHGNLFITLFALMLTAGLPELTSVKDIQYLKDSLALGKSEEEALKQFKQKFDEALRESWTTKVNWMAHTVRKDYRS
T4 sequence (P27986 whole entry partner): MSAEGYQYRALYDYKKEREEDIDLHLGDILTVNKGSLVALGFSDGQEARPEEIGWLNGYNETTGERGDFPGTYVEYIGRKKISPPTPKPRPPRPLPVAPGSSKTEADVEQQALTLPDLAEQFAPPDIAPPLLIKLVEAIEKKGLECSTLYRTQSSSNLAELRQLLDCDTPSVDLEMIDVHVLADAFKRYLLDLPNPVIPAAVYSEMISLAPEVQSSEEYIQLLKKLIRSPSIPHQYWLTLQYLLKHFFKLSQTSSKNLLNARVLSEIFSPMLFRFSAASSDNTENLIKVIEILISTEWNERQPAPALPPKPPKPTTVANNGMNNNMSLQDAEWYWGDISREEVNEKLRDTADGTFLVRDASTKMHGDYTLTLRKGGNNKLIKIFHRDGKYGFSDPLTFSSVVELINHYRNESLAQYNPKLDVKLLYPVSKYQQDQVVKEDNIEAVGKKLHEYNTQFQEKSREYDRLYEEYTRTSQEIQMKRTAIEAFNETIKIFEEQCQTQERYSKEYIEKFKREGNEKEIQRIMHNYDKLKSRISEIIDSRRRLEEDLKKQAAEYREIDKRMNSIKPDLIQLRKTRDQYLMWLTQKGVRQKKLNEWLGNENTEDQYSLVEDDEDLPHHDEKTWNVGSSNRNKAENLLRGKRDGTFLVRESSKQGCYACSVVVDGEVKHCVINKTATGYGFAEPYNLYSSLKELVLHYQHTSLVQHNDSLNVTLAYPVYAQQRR
T1 sequence (P42336 whole entry): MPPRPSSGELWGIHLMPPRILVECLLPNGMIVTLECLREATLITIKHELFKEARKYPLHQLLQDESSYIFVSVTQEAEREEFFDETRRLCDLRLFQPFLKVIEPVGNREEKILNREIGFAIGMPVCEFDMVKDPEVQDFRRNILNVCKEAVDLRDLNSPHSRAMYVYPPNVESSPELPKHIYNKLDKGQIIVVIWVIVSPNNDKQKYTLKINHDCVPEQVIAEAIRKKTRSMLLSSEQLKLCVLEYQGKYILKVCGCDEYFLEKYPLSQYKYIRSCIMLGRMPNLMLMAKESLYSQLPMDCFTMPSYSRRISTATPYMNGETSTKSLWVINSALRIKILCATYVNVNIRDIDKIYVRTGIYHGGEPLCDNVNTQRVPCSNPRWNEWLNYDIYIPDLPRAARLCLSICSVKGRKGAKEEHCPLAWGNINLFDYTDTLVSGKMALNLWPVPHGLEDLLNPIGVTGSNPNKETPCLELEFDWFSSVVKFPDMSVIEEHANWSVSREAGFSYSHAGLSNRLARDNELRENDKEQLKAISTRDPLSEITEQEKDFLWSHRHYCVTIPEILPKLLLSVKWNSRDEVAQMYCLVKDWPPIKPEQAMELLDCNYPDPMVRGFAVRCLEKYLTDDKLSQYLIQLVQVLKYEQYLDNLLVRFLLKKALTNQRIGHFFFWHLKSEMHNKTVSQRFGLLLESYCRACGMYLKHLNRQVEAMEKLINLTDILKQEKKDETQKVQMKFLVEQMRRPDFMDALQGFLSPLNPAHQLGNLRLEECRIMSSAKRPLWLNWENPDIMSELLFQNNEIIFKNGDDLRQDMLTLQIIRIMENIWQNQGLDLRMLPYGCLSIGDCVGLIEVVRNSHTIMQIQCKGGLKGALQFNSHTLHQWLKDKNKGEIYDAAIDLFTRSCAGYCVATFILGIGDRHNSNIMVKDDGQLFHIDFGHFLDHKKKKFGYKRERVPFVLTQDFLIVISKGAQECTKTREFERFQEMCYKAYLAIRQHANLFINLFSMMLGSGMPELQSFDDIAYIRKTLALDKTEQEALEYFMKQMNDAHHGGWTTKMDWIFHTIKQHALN
T1 sequence (P27986 whole entry partner): as the sequence (P27986 whole entry partner) above
T2 sequence (O00329 whole entry): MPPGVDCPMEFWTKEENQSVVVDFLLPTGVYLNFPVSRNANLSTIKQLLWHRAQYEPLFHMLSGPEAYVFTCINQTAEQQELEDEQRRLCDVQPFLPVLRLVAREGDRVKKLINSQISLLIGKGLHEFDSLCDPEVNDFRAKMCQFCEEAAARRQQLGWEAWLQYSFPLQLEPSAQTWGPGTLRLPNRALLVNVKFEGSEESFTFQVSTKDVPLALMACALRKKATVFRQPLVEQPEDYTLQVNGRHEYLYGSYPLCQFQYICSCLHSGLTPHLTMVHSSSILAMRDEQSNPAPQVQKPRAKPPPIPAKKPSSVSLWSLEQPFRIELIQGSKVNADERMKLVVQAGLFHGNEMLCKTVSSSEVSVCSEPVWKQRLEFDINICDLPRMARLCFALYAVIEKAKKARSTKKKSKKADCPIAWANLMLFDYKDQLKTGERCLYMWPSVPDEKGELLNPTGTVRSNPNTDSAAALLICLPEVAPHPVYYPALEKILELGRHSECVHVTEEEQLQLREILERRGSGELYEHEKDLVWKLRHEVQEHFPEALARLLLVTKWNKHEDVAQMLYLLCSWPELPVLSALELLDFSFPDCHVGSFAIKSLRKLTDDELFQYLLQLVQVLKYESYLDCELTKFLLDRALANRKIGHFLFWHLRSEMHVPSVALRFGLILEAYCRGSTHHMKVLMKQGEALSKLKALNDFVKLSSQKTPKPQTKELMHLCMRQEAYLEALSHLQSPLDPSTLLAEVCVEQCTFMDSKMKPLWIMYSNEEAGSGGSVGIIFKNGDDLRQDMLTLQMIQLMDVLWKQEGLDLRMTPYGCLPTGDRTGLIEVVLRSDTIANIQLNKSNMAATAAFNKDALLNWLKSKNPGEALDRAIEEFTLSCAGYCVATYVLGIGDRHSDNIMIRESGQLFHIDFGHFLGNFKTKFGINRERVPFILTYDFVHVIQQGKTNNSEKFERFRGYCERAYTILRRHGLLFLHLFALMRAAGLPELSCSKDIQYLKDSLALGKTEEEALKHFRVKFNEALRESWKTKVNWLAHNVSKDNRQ
T2 sequence (P27986 whole entry partner): as the sequence (P27986 whole entry partner) above
T3 sequence (P48736 whole entry): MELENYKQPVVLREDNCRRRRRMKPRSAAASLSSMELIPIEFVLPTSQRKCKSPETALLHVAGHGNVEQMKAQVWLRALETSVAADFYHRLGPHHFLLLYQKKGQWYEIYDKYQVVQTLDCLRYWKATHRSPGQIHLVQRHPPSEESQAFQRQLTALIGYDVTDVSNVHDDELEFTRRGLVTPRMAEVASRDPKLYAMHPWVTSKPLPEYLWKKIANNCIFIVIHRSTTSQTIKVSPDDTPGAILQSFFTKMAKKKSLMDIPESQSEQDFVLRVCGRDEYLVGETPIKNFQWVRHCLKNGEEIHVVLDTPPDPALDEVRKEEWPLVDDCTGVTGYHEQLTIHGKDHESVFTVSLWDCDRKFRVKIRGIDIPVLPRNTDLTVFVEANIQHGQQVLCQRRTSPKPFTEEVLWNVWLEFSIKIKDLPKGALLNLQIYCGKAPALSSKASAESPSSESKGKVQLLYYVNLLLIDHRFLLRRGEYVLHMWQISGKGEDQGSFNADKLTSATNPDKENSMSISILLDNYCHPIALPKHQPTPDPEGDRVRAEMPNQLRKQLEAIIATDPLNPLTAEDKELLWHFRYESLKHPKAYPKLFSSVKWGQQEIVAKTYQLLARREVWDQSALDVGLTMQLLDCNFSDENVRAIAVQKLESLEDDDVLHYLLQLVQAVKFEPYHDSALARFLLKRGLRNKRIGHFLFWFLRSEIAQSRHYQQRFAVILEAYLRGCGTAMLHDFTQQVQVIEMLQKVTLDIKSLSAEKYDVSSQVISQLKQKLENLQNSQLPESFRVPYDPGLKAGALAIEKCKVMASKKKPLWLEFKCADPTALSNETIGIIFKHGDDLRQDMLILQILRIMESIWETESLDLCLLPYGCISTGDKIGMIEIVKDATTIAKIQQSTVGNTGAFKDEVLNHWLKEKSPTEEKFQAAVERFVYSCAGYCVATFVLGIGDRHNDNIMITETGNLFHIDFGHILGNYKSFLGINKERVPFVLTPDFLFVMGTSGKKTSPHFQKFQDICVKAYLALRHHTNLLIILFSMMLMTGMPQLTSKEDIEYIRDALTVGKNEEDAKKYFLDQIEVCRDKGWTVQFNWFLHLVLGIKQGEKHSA

IC50 (PI3Kα (p110α/p85α)): 1.3 ± 0.27 µM
IC50 (PI3Kδ (p110δ/p85α)): 1.58 ± 0.16 µM
IC50 (PI3Kγ (p110γ)): 0.107 ± 0.07 µM
Mode of inhibition (IC50 for PI3Kβ at various concentrations of ATP) (PI3Kβ (p110β/p85α); ATP 5, 25, 50, 100 and 200 μM): ATP-competitive inhibitor
IC50 (PI3Kβ (p110β/p85α); PI3-Kinase Activity ELISA, incubated 30 min at room temperature): 0.364 ± 0.13 µM
Structure (SMILES): Cc1cc2c(cc1C)[n+](Cc1ccccc1Br)cn2Cc1ccc2c(c1)CCO2.[Br-] [B591, 3-(2-bromobenzyl)-1-((2,3-dihydrobenzofuran-5-yl)methyl) -5,6-dimethyl-1H-benzo[d]imidazol-3-ium bromide]
Reduction of ALDHhigh fractions [1]: 90%
Apoptosis induction (RD cells): significant apoptosis inducing effect
number of tumor-bearing mice (number of recipient mice) ([2]; cell number 2 000): 0(5)
number of tumor-bearing mice (number of recipient mice) ([2]; cell number 20 000): 2(5)
number of tumor-bearing mice (number of recipient mice) ([2]; cell number 200 000): 3(5)
number of tumor-bearing mice (number of recipient mice) ([2]; cell number 200): 0(5)
Reduction of tumor-initiating frequency versus vehicle ([2]; cells from B591-treated tumors): sevenfold reduction

Reference: publication PMC6756013, “B591, a novel specific pan-PI3K inhibitor, preferentially targets cancer stem cells” (Oncogene, 2019)
